In ChEMBL document CHEMBL4732062, “Protease activated receptor 4 (PAR4) antagonists: Research progress on small molecules in the field of antiplatelet agents” (Eur J Med Chem, 2021):
Blank lines part the entries; values can stand above or below the compound they belong to.

Legend:
Cynomolgus monkey [1] = test: Antithrombotic activity in cynomolgus monkey model of electrolytic carotid artery thrombosis assessed as reduction in thrombus weight at 4 mg/kg/hr, iv administered as single dose measured at 2 hrs post dose relative to control; assay type: functional, Macaca fascicularis; set-up: scale not given: the % may be the effect or the level left
Rhesus monkey [2] = test: Antithrombotic activity in monkey assessed as increase in mesenteric artery bleeding time at 4 mg/kg/hr, iv administered as single dose measured at 2 hrs post dose relative to control; assay type: functional, Macaca mulatta
Rhesus monkey [3] = test: Antithrombotic activity in monkey model of electrolytic carotid artery thrombosis assessed as reduction in thrombus weight at 0.1 mg/kg administered as single dose cotreated with aspirin measured at 2 hrs post dose relative to control; assay type: functional, Macaca mulatta; set-up: scale not given: the % may be the effect or the level left
Rhesus monkey [4] = test: Antithrombotic activity in monkey model of electrolytic carotid artery thrombosis assessed as reduction in thrombus weight at 0.5 mg/kg administered as single dose cotreated with aspirin measured at 2 hrs post dose relative to control; assay type: functional, Macaca mulatta; set-up: scale not given: the % may be the effect or the level left
[5] = Inhibition of arachidonic acid-induced platelet aggregation in human platelet-rich plasma incubated for 1 min followed by arachidonic acid addition; assay type: functional, cell-based
[6] = Inhibition of PAF-induced platelet aggregation in human platelet-rich plasma incubated for 1 min followed by PAF addition; assay type: functional
[7] = Inhibition of thrombin-induced platelet aggregation in human platelet-rich plasma incubated for 1 min followed by thrombin addition; assay type: functional
[8] = Inhibition of collagen-induced platelet aggregation in human platelet-rich plasma incubated for 1 min followed by collagen addition; assay type: functional
Cynomolgus monkey [9] = test: Antithrombotic activity in cynomolgus monkey model of electrolytic carotid artery thrombosis assessed as reduction in thrombus weight at 0.5 mg/kg, PO administered once daily for 3 days measured at 2 hrs post last dose relative to control; assay type: functional, Macaca fascicularis; set-up: scale not given: the % may be the effect or the level left; conditions: time 3 day
[10] = Antagonist activity at PAR4 in cynomolgus monkey whole blood assessed as inhibition of Ala-(L-4-F-Phe)-Pro-Gly-Trp-Leu-Val-Lys-Asn-Gly-induced platelet aggregation preincubated for 10 mins followed by Ala-(L-4-F-Phe)-Pro-Gly-Trp-Leu-Val-Lys-Asn-Gly stimulation; assay type: tissue-based; conditions: Macaca fascicularis
[11] = target: T1, Proteinase-activated receptor 4 (Homo sapiens, UniProt Q96RI0); test: Inhibition of human PAR4 expressed in HEK293 cells assessed as Ala-(L-4-F-Phe)-Pro-Gly-Trp-Leu-Val-Lys-Asn-Gly-induced inhibition of calcium mobilization preincubated for 30 mins followed by Ala-(L-4-F-Phe)-Pro-Gly-Trp-Leu-Val-Lys-Asn-Gly stimulation by FLIPR method; assay type: functional, cell-based
T1 sequence (Q96RI0 whole entry): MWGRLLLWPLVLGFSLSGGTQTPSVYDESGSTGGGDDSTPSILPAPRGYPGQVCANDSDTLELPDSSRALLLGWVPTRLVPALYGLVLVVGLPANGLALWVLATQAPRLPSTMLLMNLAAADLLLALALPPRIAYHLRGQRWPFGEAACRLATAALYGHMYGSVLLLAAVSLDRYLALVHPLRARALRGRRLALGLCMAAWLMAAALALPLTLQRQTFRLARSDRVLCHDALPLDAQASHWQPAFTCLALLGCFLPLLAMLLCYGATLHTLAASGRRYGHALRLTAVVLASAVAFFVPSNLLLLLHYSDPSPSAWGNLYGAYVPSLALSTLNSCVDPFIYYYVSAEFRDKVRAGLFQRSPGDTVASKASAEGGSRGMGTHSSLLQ

Cynomolgus monkey [12] = test: Antithrombotic activity in cynomolgus monkey model of electrolytic carotid artery thrombosis assessed as increase in provoked kidney bleeding time at 1 mg/kg, PO administered once daily for 3 days measured at 2 hrs post last dose; assay type: functional, Macaca fascicularis; conditions: time 3 day
Cynomolgus monkey [13] = test: Antithrombotic activity in cynomolgus monkey model of electrolytic carotid artery thrombosis assessed as increase in mesenteric bleeding time at 1 mg/kg, PO administered once daily for 3 days measured at 2 hrs post last dose; assay type: functional, Macaca fascicularis; conditions: time 3 day
Rhesus monkey [14] = test: Antithrombotic activity in monkey model of electrolytic carotid artery thrombosis assessed as reduction in thrombus weight at 0.5 mg/kg administered as single dose measured at 2 hrs post dose relative to control; assay type: functional, Macaca mulatta; set-up: scale not given: the % may be the effect or the level left
Rhesus monkey [15] = test: Antithrombotic activity in monkey model of electrolytic carotid artery thrombosis assessed as reduction in thrombus weight at 0.05 mg/kg administered as single dose measured at 2 hrs post dose; assay type: functional, Macaca mulatta; set-up: scale not given: the % may be the effect or the level left
Rhesus monkey [16] = test: Antithrombotic activity in monkey assessed as increase in mesenteric artery bleeding time at 0.5 mg/kg administered as single dose cotreated with aspirin measured at 2 hrs post dose relative to control; assay type: functional, Macaca mulatta
Rhesus monkey [17] = test: Antithrombotic activity in monkey assessed as increase in mesenteric artery bleeding time at 0.1 mg/kg administered as single dose cotreated with aspirin measured at 2 hrs post dose relative to control; assay type: functional, Macaca mulatta
Rhesus monkey [18] = test: Antithrombotic activity in monkey model of electrolytic carotid artery thrombosis assessed as reduction in thrombus weight at 0.1 mg/kg administered as single dose measured at 2 hrs post dose; assay type: functional, Macaca mulatta; set-up: scale not given: the % may be the effect or the level left
Rhesus monkey [19] = test: Antithrombotic activity in monkey assessed as increase in mesenteric artery bleeding time at 0.05 to 0.5 mg/kg administered as single dose measured at 2 hrs post dose relative to control; assay type: functional, Macaca mulatta; conditions: dose 0.05-0.5 mg/kg

IC50 [6]: 76.3 µM
IC50 [7]: 126 µM
IC50 [8]: 59.3 µM
IC50 [5]: 32.4 µM
Compound: COC(=O)c1ccc(-c2nn(Cc3ccccc3)c3cc(C)ccc23)o1

IC50 [10]: 0.0021 µM
Compound: COc1cc(OCc2nc(N3CCOCC3)sc2C)c2cc(-c3cn4nc(OC)sc4n3)oc2c1
Activity (Cynomolgus monkey [9]): 50%

IC50 [11]: 0.0024 µM
Compound: COc1cnc2c(-c3nc4cc(F)c(O[C@@H]5CCC(C)(C)[C@@H]5OC(=O)Nc5ccnc(C)n5)cc4s3)cc(C)cc2n1

IC50 [11]: 0.00045 µM
Compound: COc1cc(OCc2nc(-c3ccc(C(=O)N(C)C)cc3)sc2C)c2cc(-c3cn4nc(OC)sc4n3)oc2c1
Activity (Rhesus monkey [14]): 88%
Activity (Rhesus monkey [15]): 36%
fold change (FC) (Rhesus monkey [16]): 3
fold change (FC) (Rhesus monkey [17]): 2.6
Activity (Rhesus monkey [18]): 63%
fold change (FC) (Rhesus monkey [19]): <=1.2

More lines, now with the values behind:

Compound: CC(=O)Oc1ccccc1C(=O)O [ASPIRIN]
Activity (Cynomolgus monkey [1]): 12%
fold change (FC) (Rhesus monkey [2]): 2.2
Activity (Rhesus monkey [3]): 50%
Activity (Rhesus monkey [4]): 89%

Compound: CCOC(=O)c1ccc(-c2nn(Cc3ccccc3)c3ccccc23)cc1
IC50 [5]: 185 µM

Compound: CCOC(=O)c1cccc(-c2nn(Cc3ccccc3)c3ccccc23)c1
IC50 [6]: > 270 µM
IC50 [7]: > 270 µM

Compound: O=C(O)c1ccc(-c2nn(Cc3ccccc3)c3ccccc23)cc1
IC50 [6]: 235 µM
IC50 [7]: > 270 µM
IC50 [8]: 148 µM
IC50 [5]: 156 µM

Compound: COC(=O)c1ccc(-c2nn(Cc3ccccc3)c3cc4c(cc23)OCO4)o1
IC50 [6]: > 270 µM
IC50 [7]: > 270 µM
IC50 [8]: 157 µM
IC50 [5]: 92.3 µM

Compound: COC(=O)[C@H](c1ccccc1Cl)N1CCc2sccc2C1 [CLOPIDOGREL]
fold change (FC) (Cynomolgus monkey [12]): >10
fold change (FC) (Cynomolgus monkey [13]): >10

Compound: COC(=O)c1ccc(-c2nn(-c3ccccc3)c3ccccc23)o1
IC50 [6]: > 270 µM
IC50 [7]: > 270 µM
